Data from US20260027116A1, “Methods of Treating Chronic Graft-Versus-Host Disease Following Allogeneic Hematopoietic Stem Cell Transplantation” (Kadmon Corporation, LLC, priority 2022, published 2026).
Structures can show the parent of a compound that is named as a salt.

Tests used:
[1] = solubility of belumosudil mesylate; format: physicochemical
Protocol: The tablet film consists of polyvinyl alcohol, polyethylene glycol, talc, titanium dioxide and yellow iron oxide. Each 200 mg tablet is a pale yellow film-coated oblong tablet debossed with “KDM” on one side and “200” on the other side. Tablets are stored at room temperature, 20° C. to 25° C. (68° F. to 77° F.); excursions permitted from 15° C. and 30° C. (59° F. to 86° F.).

cGVHD = details: in vivo; cited from earlier work

Structure (SMILES)	solubility in DMF [1]	solubility in DMSO [1]	solubility in methanol [1]	solubility in water [1]	discontinuation rate because of TEAEs (cGVHD) [%]
CC(C)NC(=O)COc1cccc(-c2nc(Nc3ccc4[nH]ncc4c3)c3ccccc3n2)c1 [Belumosudil mesylate, 2-{3-[4-(1H-indazol-5-ylamino)-2-quinazolinyl]phenoxy}-N-(propan-2-yl) acetamide methanesulfonate (1:1)]	slightly soluble	soluble	slightly soluble	practically insoluble	–
C=CC(=O)N1CCC[C@@H](n2nc(-c3ccc(Oc4ccccc4)cc3)c3c(N)ncnc32)C1 [ibrutinib]	–	–	–	–	43
